Assays:
[1] = target: TLR7 (Homo sapiens (Human), UniProt Q9NYK1); experiment: TLR7 agonist bioactivity: induction of IFNα protein in pDC-enriched PBMC cultures (ELISA, 24 h); format: cell-based; conditions: for EC50: IFNα induction, pDC-enriched human PBMC, 24 hours
Description: Plasmacytoid dendritic cell (pDC)—enriched peripheral blood mononuclear cells (PBMCs) were prepared from the blood of a series of human donors (3-5 donors/experiment). PBMCs were isolated using Ficoll-Paque Premium® (GE Healthcare, Chicago Ill.) using methods well known to those in the art. pDCs were magnetically isolated from the total recovered PBMC population using CD304 (BDCA-4/Neuropilin-1) microbeads (Miltenyi Biotec, San Diego Calif.), according to the manufacturer's instructions. Isolated pDCs were then added back to between 1 and 2×10^8 of the corresponding donor's PBMCs for relative enrichment of this cell type. […] Culture supernatants were collected and interferon-alpha (IFNα) protein levels were measured by ELISA (MabTech, Cincinnati Ohio), according to the manufacturer's instructions.

[2] = target: TLR8 (Homo sapiens (Human), UniProt Q9NR97); experiment: TLR8 agonist bioactivity: induction of TNFα protein in monocyte cultures (ELISA, 24 h); format: cell-based; conditions: for EC50: TNFα induction, human monocytes, 24 hours; for fold loss of TLR8 agonist potency compared to Compound No. 63-00 (IMDQ): less potent than IMDQ
Description: Monocytes were magnetically isolated from PBMCs, prepared as described above, following labeling with CD14 microbeads (Miltenyi Biotec, San Diego Calif.), according to the manufacturer's instructions. […] Culture supernatants were collected and tumor necrosis factor alpha (TNFα) protein levels were measured by ELISA (MabTech, Cincinnati Ohio), according to the manufacturer's instructions.

TLR7, sequence (Q9NYK1 27-1049): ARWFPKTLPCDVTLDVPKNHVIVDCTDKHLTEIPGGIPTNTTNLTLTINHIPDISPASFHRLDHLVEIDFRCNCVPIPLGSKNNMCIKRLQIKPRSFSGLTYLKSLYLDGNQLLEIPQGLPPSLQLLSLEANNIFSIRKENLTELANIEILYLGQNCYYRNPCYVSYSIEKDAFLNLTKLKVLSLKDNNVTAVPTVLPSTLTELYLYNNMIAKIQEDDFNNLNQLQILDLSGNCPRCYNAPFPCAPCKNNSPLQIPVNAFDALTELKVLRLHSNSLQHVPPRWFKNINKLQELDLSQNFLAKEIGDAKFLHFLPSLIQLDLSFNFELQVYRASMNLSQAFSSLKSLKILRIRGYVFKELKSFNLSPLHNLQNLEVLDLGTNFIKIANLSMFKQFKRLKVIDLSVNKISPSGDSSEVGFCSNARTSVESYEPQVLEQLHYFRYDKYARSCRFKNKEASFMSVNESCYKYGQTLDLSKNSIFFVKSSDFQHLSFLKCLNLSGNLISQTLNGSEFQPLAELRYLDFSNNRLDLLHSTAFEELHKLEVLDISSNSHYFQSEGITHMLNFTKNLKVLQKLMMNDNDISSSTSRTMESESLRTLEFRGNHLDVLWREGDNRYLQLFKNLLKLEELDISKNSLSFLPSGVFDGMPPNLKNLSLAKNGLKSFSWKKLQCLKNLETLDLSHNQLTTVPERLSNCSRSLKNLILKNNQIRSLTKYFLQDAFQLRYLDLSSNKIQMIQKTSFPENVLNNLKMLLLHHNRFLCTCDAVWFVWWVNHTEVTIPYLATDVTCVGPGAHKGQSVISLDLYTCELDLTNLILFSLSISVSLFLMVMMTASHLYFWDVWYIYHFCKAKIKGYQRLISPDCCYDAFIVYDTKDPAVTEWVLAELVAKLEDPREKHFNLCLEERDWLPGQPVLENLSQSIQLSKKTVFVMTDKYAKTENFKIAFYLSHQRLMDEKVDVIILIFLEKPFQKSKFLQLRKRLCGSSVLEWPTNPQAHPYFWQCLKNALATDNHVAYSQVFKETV
TLR8, sequence (Q9NR97 27-1041): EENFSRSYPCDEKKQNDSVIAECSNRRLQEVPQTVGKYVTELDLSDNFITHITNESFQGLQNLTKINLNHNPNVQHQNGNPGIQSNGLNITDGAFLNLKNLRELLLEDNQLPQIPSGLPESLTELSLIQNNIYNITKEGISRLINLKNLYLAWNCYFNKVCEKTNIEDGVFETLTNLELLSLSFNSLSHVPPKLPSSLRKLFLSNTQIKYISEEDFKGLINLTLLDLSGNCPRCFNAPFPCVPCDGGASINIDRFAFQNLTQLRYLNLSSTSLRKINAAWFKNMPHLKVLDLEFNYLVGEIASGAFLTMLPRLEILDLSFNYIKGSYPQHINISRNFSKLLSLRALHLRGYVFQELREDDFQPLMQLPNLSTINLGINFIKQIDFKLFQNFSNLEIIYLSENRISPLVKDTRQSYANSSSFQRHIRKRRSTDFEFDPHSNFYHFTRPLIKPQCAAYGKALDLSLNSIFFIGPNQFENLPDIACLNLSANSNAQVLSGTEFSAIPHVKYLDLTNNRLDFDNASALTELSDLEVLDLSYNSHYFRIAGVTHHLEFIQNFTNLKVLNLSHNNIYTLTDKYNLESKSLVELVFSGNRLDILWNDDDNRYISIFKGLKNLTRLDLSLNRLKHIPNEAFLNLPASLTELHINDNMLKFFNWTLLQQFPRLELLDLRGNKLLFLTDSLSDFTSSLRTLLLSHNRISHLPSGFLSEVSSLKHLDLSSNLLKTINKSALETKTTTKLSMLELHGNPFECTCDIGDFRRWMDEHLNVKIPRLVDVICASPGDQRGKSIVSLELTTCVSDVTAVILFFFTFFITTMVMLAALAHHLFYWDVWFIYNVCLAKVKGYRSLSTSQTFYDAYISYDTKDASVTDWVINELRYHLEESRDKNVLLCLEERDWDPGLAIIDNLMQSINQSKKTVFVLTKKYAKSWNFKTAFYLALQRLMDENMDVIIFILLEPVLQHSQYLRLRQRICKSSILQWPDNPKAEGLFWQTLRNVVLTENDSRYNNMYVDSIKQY

Compound	EC50 [1] [nM]	EC50 [2] [nM]	fold loss of TLR8 agonist potency compared to Compound No. 63-00 (IMDQ) [2]	fold loss of TLR7 agonist potency compared to Compound No. 63-00 (IMDQ) ([1]; less potent than IMDQ) [fold]
CCCCCCCCCCCC(=O)NCc1ccc(Cn2c(CCCC)nc3c(N)nc4ccccc4c32)cc1 [Compound No. 63-08, N-(4-((4-amino-2-butyl-1H-imidazo[4,5-c]quinolin-1-yl)methyl)benzyl)dodecanamide]	3	1270	did not lose as much agonist activity	–
CCCCCCCNCc1ccc(Cn2c(CCCC)nc3c(N)nc4ccccc4c32)cc1 [Compound No. 63-19, 2-butyl-1-(4-((heptylamino)methyl)benzyl)-1H-imidazo[4,5-c]quinolin-4-amine]	24	752	–	–
CCCCCCCCNCc1ccc(Cn2c(CCCC)nc3c(N)nc4ccccc4c32)cc1 [Compound No. 63-20, 2-butyl-1-(4-((octylamino)methyl)benzyl)-1H-imidazo[4,5-c]quinolin-4-amine]	51	1220	–	–
CCCCCCCCCNCc1ccc(Cn2c(CCCC)nc3c(N)nc4ccccc4c32)cc1 [Compound No. 63-21, 2-butyl-1-(4-((nonylamino)methyl)benzyl)-1H-imidazo[4,5-c]quinolin-4-amine]	68	947	–	–
CCCCCCCCCCNCc1ccc(Cn2c(CCCC)nc3c(N)nc4ccccc4c32)cc1 [Compound No. 63-22, 2-butyl-1-(4-((decylamino)methyl)benzyl)-1H-imidazo[4,5-c]quinolin-4-amine]	62	821	–	–
CCCCCCCCCCCCNCc1ccc(Cn2c(CCCC)nc3c(N)nc4ccccc4c32)cc1 [Compound No. 63-24, 2-butyl-1-(4-((dodecylamino)methyl)benzyl)-1H-imidazo[4,5-c]quinolin-4-amine]	32	1040	–	–
CCCCCCCCCCCCCCCCCCNCc1ccc(Cn2c(CCCC)nc3c(N)nc4ccccc4c32)cc1 [Compound No. 63-29, 2-butyl-1-(4-((octadecylamino)methyl)benzyl)-1H-imidazo[4,5-c]quinolin-4-amine]	19	2770	over 12 fold	19
CCCCCCCCCCCCCCCC(=O)NCc1ccc(Cn2c(CCCC)nc3c(N)nc4ccccc4c32)cc1 [Compound No. 63-31, N-(4-((4-amino-2-butyl-1H-imidazo[4,5-c]quinolin-1-yl)methyl)benzyl)palmitamide, reference compound]	3	2150	10-26 fold	–

The remaining lines, values ahead:

EC50 [1] [nM]	EC50 [2] [nM]	fold loss of TLR8 agonist potency compared to Compound No. 63-00 (IMDQ) [2]	fold loss of TLR7 agonist potency compared to Compound No. 63-00 (IMDQ) ([1]; less potent than IMDQ) [fold]	Compound
3	2170	10-26 fold	–	CCCCCCCCC(=O)NCc1ccc(Cn2c(CCCC)nc3c(N)nc4ccccc4c32)cc1 [Compound No. 63-05, N-(4-((4-amino-2-butyl-1H-imidazo[4,5-c]quinolin-1-yl)methyl)benzyl)nonanamide]
2	2750	10-26 fold	–	CCCCCCCCCC(=O)NCc1ccc(Cn2c(CCCC)nc3c(N)nc4ccccc4c32)cc1 [Compound No. 63-06, N-(4-((4-amino-2-butyl-1H-imidazo[4,5-c]quinolin-1-yl)methyl)benzyl)decanamide]
1	2640	10-26 fold	–	CCCCCCCCCCC(=O)NCc1ccc(Cn2c(CCCC)nc3c(N)nc4ccccc4c32)cc1 [Compound No. 63-07, N-(4-((4-amino-2-butyl-1H-imidazo[4,5-c]quinolin-1-yl)methyl)benzyl)undecanamide]
2	970	did not lose as much agonist activity	–	CCCCCCCCCCCCC(=O)NCc1ccc(Cn2c(CCCC)nc3c(N)nc4ccccc4c32)cc1 [Compound No. 63-09, N-(4-((4-amino-2-butyl-1H-imidazo[4,5-c]quinolin-1-yl)methyl)benzyl)tridecanamide]
